These results are taken from patent US4080454A, “5-M-Tolyloxyuracil, anti-ulcer agent” (priority 1976, dated 1978).

The structures appear in SMILES notation. “Also recorded” adds a separate entry of the source. Some results are limits rather than exact numbers.

The test system of series [1] is thymidine phosphorylase. The conditions noted are these: J. Med. Chem., 14, 812 (1971); cited from earlier work.
The test system of series [2] is FUDR phosphorylase. The settings on record: J. Med. Chem., 13, 461 (1970); cited from earlier work.
For series [3] the following is noted: literature; cited from earlier work.
Series [4] can be described thus: Metabolism of 5-(m-methylphenoxy)-2-(1H)pyrimidinone / 5-m-tolyloxyuracil in rats (C2 radiolabel). The format is in vivo.
A short description of series [5]: Metabolism of 5-(m-methylphenoxy)-2-(1H)pyrimidinone / 5-m-tolyloxyuracil in monkeys (C2 radiolabel). The format is in vivo.
Series [6] is described as follows: Plasma pharmacokinetics in human subjects. Type of series: in vivo. The method, then: (§1) In man, using single doses of 400 to 700 mg of 5-(m-methylphenoxy)-2-(1H)pyrimidinone, this drug had declined below the level of detectability by 2 hours post dose.
In our studies in animals and man we have never been able to isolate 5-m-tolyloxyuracil in substantially pure form. Rather we have obtained samples of urine and blood plasma from animals and man consisting of a multitude of natural components, one of which we have identified as 5-m-tolyloxyuracil by comparison of its physical properties with material prepared in substantially pure form by the synthesis described in the present application. Indeed, in samples of plasma from human subjects treated with 5-m-tolyloxy-2(1H)pyrimidinone we have only detected peak levels of 5-m-tolyloxyuracil at the very low concentration of 40 ug/ml. When we say "in substantially pure form", we mean a purity of 95% or greater.

The subject of series [7] is stress induced gastric ulceration. Put plainly: Cold-restraint stress induced gastric ulceration (antiulcer activity). The format is in vivo, female rats. The conditions noted are these: for % incidence of lesions / Number of lesions: 3 h before stress; for Number of lesions: total in group. As for the experimental part: In order to test the antiulcer activity of 5-m-tolyloxyuracil, stress induced gastric ulceration was produced by immobilizing non-fasted, female rats in a supine position and placing them in a refrigerator at 12° C. for 3 hours. Experimental drugs were administered 3 hours before the initiation of the cold-restraint stress period. At the conclusion of the stress period, the rats were sacrificed, their stomachs inflated with 5 ml of water and removed. The isolated stomachs were placed in a 4 percent aqueous solution of formaldehyde to stiffen the serosal side of the inflated stomach. This procedure facilitates examination of the stomach which is accomplished by slitting the stomach along its greater curvature and noting the number and incidence of gastric lesions. Both control and experimental drug groups consisted of ten rats. A significant reduction in the number and incidence of gastric lesions characterizes antiulcer agents.
The table below compares 5-m-tolyoxyuracil (Compound A) with 5-m-tolyloxy-2-thiouracil (Compound B), Carbenoxolone-Na (Compound C), and 5-(m-methylphenoxy)-2(1H)-pyrimidinone (Compound D).
Percent incidence of lesions is defined as follows. [formula] Number of lesions is the total number of lesions in the experimental group.

The test system of series [8] is experimentally-induced gastric ulceration. The conditions noted are these: animals; cited from earlier work.
Series [9] concerns gastric ulcer. The settings on record: human gastric ulcer patients; cited from earlier work.
Series [10] is described as follows: Metabolic conversion in human subjects. The format is in vivo. As for the experimental part:
as §1

Series [11] can be described thus: Search for other metabolic modifications of 5-(m-methylphenoxy)-2-(1H)pyrimidinone. More on the design: species or system rats, monkeys and human subjects. The settings on record: in vivo. As for the experimental part:
U.S. Pat. No. 3,922,345 discloses the method of treating peptic ulcers which comprises administering to a subject afflicted therewith a daily dose of about 0.60 to 21 mg per kg. of body weight of 5-(m-methylphenoxy)-2-(1H)-pyrimidinone. […] We have been unable to detect metabolic products resulting from (1) phenoxy ring hydroxylation, (2) oxidation of the m-methyl group or (3) ether cleavage.

[12] abbreviates: endogenously generated 5-m-tolyloxyuracil.
The mark [13] stands for this setting: rats, cold-restraint stress, doses of the table.

Consider `O=c1[nH]cc(Oc2ccccc2)c(=O)[nH]1` [5-Phenoxyuracil], for which the “inhibition of thymidine phosphorylase” value in series [1] is reported as “poor activity”. For the same compound, in [2], the “inhibition of FUDR phosphorylase” value was “poor activity”.
For `O=c1[nH]cc(F)c(=O)[nH]1` [5-fluorouracil], the “metabolic conversion / degradation” value in series [3] is “metabolically converted to 5,6-dihydrouracils which undergo ring opening with subsequent loss of the C2 pyrimidine carbon as carbon dioxide; also recorded: undergoes a reduction of the 5,6-double bond to give a 5,6-dihydrouracil which subsequently undergoes ring opening to an N-acetamido βalanine which then loses the C-2 pyrimidine carbon as carbon dioxide”.
With `Cc1cccc(Oc2c[nH]c(=O)[nH]c2=O)c1` [Compound A, 5-m-tolyloxyuracil], the “metabolic degradation (ring opening, loss of C2 as carbon dioxide)” value in [4] (setting [12]) and in series [5] (setting [12]) was “does not undergo this metabolic degradation; also recorded: no appriciable quantities of radioactive CO2 were observed” in each case. In addition, the “plasma half life compared with 5-(m-methylphenoxy)-2-(1H)pyrimidinone” value in [6] (human subjects) is on record as “much longer plasma half life; also recorded: much longer plasma half-life”. Besides, the “peak plasma concentration compared with parent drug” value in [6] (human, endogenously generated after single 400 to 700 mg doses of 5-(m-methylphenoxy)-2-(1H)pyrimidinone) is recorded as “peak concentrations greater than that of parent drug”. Moreover, the “% incidence of lesions” value is 56% in series [7] (32 mg/kg ip, control 100) and 70% in series [7] (50 mg/kg ip, control 100). Also, the Number of lesions in [7] (32 mg/kg ip, control 58) amounted to 19; in [7] (50 mg/kg ip, control 58), 34. Besides, the “antiulcer activity (in words)” value in [7] (setting [13]) is “effective antiulcer agents at both doses tested since the number and incidence of lesions following drug treatment are significantly lower (P value < 0.05) than in controls”; in series [7] (rats, cold-restraint stress, doses of the table, listed as 5-m-tolyloxyuracil), “protects rats against ulceration”.
Take `Cc1cccc(Oc2c[nH]c(=S)[nH]c2=O)c1` [Compound B, 5-m-tolyloxy-2-thiouracil]: the “% incidence of lesions” value in [7] (10 mg/kg po, control 80) is on record as 80%. Further, the Number of lesions in series [7] (10 mg/kg po, control 31) worked out at 50. For the same compound, the “antiulcer activity (in words)” value in series [7] (setting [13]) is “inactive”.
For `CC1(C(=O)O)CCC2(C)CCC3(C)C(=CC(=O)C4C5(C)CCC(OC(=O)CCC(=O)O)C(C)(C)C5CCC43C)C2C1` (stereo not shown) [Compound C, Carbenoxolone-Na], the “protection from experimentally-induced gastric ulceration” value in series [8] is “known to protect animals from experimentally-induced gastric ulceration”. The “gastric antiulcer efficacy in clinical trials” value in series [9] is given as “effective gastric antiulcer agent”. The “antiulcer activity (in words)” value in series [7] (32 mg/kg) is given as “less active at 32 mg/kg at which dose the activity is not significant at the P = 0.05 level”; in [7] (60 mg/kg), “significantly active (P < 0.05)”. In addition, the “% incidence of lesions” value in series [7] (32 mg/kg ip, control 50) is on record as 40%; in [7] (60 mg/kg ip, control 65), 25%. For the same compound, the Number of lesions in [7] (32 mg/kg ip, control 15) worked out at 9; in series [7] (60 mg/kg ip, control 24), 7.
In the case of `Cc1cccc(Oc2cnc(=O)[nH]c2)c1` [Compound D, 5-(m-methylphenoxy)-2(1H)-pyrimidinone], the “metabolic conversion to 5-m-tolyloxyuracil” value in [4] is “rapidly and efficiently metabolically converted to 5-m-tolyloxyuracil”; in series [10], “rapidly and efficiently metabolically converted to 5-m-tolyloxyuracil”; in [5] it was “rapidly and efficiently metabolically converted to 5-m-tolyloxyuracil”. The “other metabolic modifications (phenoxy ring hydroxylation, m-methyl oxidation, ether cleavage)” value in [11] is listed as “do not occur to any detectable extent”. Further, the “time post dose to decline below the level of detectability” value in [6] (human, single doses of 400 to 700 mg) is at most 2 h. Further, the “% incidence of lesions” value in [7] (10 mg/kg ip, control 90) stood at 60%; in series [7] (32 mg/kg ip, control 90), 40%. For the same compound, the Number of lesions is reported as 12 in series [7] (10 mg/kg ip, control 42) and 13 in series [7] (32 mg/kg ip, control 34). In addition, the “antiulcer activity (in words)” value in [7] (setting [13]) was “effective antiulcer agents at both doses tested since the number and incidence of lesions following drug treatment are significantly lower (P value < 0.05) than in controls”.
